≈ marks a conversion by molar mass, not a printed value. A value given as a limit tells only on which side of the number the result lay.

Data set [1] relates to S. aureus ATCC 25923. As to the method:
was used as a negative control.
Experiments were performed in triplicate.
The experiment was performed in triplicate.

Data set [2] concerns TEV protease, Endoproteinase AspN, Endoproteinase GluC. To be noted: many other proteases (TEV protease 37 °C, Endoproteinase AspN and GluC 30 °C), 32 μg/mL, 100:1 (w:w), 4 h, 8 h, 12 h, UPLC-LRMS. The procedure: (§1) Protease stability of massatide A
(§2) We selected TEV protease, Endoproteinase AspN, Endoproteinase GluC, trypsin, and chymotrypsin to evaluate the stability of massatide A. The protease digestion assay was conducted as follows: (i) Stock solution of massatide A (3.2 mg/mL in DMSO) was diluted in H2O with final concentration of 32 μg/mL, (ii) each protease was added with 100:1 (w:w) ratio and incubated under corresponding temperature, i.e., 37 °C for TEV protease, trypsin, and chymotrypsin and 30 °C for Endoproteinase AspN and […]
(§3) Endoproteinase GluC. […]

The test system of data set [3] is trypsin. To be noted: 32 μg/mL in H2O, protease 100:1 (w:w), 37 °C, 4 h, 8 h and 12 h, UPLC-LRMS. As to the method:
as §1, §2, §3

Data set [4] relates to S. aureus ATCC259923. As to the kind of experiment: UDP-N-acetyl-muramic acid pentapeptide levels (HPLC-HRMS). The class given is cell-based, Staphylococcus aureus. To be noted: S. aureus treated with or without massatide A, comparative HPLC-HRMS, preliminary unpublished data. An excerpt: page 26: “Also, there is no discussion about the possible mechanism of antibacterial activity.” We have included a discussion on the proposed mode of action of […] A in the discussion section in lines 388-394 of our manuscript. “Avi(Me)Cys-containing lanthipeptides are reported to target lipid II, an essential precursor in cell wall biosynthesis. […], which shares structural similarities with cacaoidin, may potentially target lipid II or certain membrane proteins involved in peptidoglycan biosynthesis. However, a comprehensive study is necessary to fully uncover the detailed mode of action of […] A, which will be the primary focus of our ongoing research.” In our ongoing study, we have obtained some preliminary unpublished data supporting our hypothesis that […] A may inhibit cell wall biosynthesis. We assessed UDP-N-acetyl-muramic acid pentapeptide levels, an essential precursor in cell wall biosynthesis, in the S. aureus ATCC259923 strain treated with or without […] The mode of action of […] A will be further investigated in our ongoing research. […] 12. p. 16: the data that […] A1 and A2 act synergistically are not convincing - see also main comment above. […] We acknowledge the concern regarding the insufficient evidence supporting the presence of a synergistic effect in our study. As a result, we have opted to remove any conclusions relating to synergy. […]

The subject of data set [5] is Bacillus subtilis 168. Kind of data set: microbe, parasite or virus in culture. To be noted: 168, 20 h. The class given is cell-based.
Data set [6] has as its system Enterococcus faecium MCC2763. Kind of data set: microbe, parasite or virus in culture. The class given is cell-based. To be noted: MCC2763, 20 h. Put shortly: (§4)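 Broth microdilution in MHB with two-fold compound series, 37 °C for 20 h; growth read by OD600 to give MIC. Clinical isolates tested externally by a similar protocol.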
The subject of data set [7] is Klebsiella pneumoniae 15-1. Kind of data set: microbe, parasite or virus in culture. To be noted: 15-1, 20 h. The class given is cell-based. Summed up:
as §4

Data set [8] has as its system Acinetobacter baumannii 20-2. Kind of data set: microbe, parasite or virus in culture. The class given is cell-based. To be noted: 20-2, 20 h. Put shortly: as §4
In data set [9] the test system is Micrococcus luteus DSM1790. As to the kind of experiment: microbe, parasite or virus in culture. The class given is cell-based. To be noted: DSM1790, 20 h.
Data set [10] deals with Staphylococcus aureus ATCC25923. As to the kind of experiment: microbe, parasite or virus in culture. To be noted: ATCC25923, 20 h. The class given is cell-based. Summed up:
as §4

Data set [11] concerns Klebsiella pneumoniae ATCC700603. As to the kind of experiment: microbe, parasite or virus in culture. The class given is cell-based. To be noted: ATCC700603, 20 h. Put shortly: as §4
The test system of data set [12] is Enterococcus faecalis 19-1. As to the kind of experiment: microbe, parasite or virus in culture. The class given is cell-based. To be noted: 19-1, 20 h. Put shortly: as §4
Data set [13] concerns Acinetobacter baumannii 20-1. Kind of data set: microbe, parasite or virus in culture. The class given is cell-based. To be noted: 20-1, 20 h. Put shortly: as §4
The subject of data set [14] is Enterococcus faecalis OG1RF. As to the kind of experiment: microbe, parasite or virus in culture. The class given is cell-based. To be noted: OG1RF, 20 h. Put shortly: as §4

Regarding `C/C=C1\NC(=O)C(N(C)C)C(C)SC[C@@H](C(=O)N[C@H](CC)C(=O)N[C@H](C(=O)N[C@@H](C)C(=O)N[C@H](C)C(=O)N[C@@H](Cc2ccccc2)C(=O)N[C@@H](C)C(=O)NC2C(=O)NCC(=O)N[C@@H](Cc3ccc(O)cc3)C(=O)N[C@@H](Cc3ccccc3)C(=O)N[C@H](C)C(=O)N/C=C\SC2C)C(C)C)NC(=O)[C@@H]2CCCN2C(=O)[C@H](C(C)C)NC1=O` (stereo partly drawn) [Massatide A (1), massatide A], the “MIC to S. aureus after serial passaging” value in data set [1] (25 days of serial passaging in subinhibitory concentrations, triplicate) worked out at 4 µg/mL (≈ 2.45 µM). Besides, in data set [1] (subsequent 19 days after day 6), the “change in MIC during serial passaging” value is given as “No significant change in MIC”. The protease stability result in data set [2] and in data set [3] was “resistant” in each case. Also, the “UDP-N-acetyl-muramic acid pentapeptide levels” value in data set [4] is recorded as “increased levels”. For the same molecule, the MIC in data set [5] was 2 µg/mL (≈ 1.22 µM); in [6], 2 µg/mL (≈ 1.22 µM); in data set [7], above 64 µg/mL; in [8] it was 64 µg/mL (≈ 39.1 µM); in data set [9], 0.06 µg/mL (≈ 0.0367 µM); in data set [10], 0.5 µg/mL (≈ 0.306 µM). Also, the MIC in data set [11] is above 64 µg/mL; in [12] it was 4 µg/mL (≈ 2.45 µM); in [13], 64 µg/mL (≈ 39.1 µM); in data set [14], 4 µg/mL (≈ 2.45 µM).

The values are drawn from article PMC11162475, “Rule-based omics mining reveals antimicrobial macrocyclic peptides against drug-resistant clinical isolates” (Nature Communications, 2024).
